Reference: patent US10364226B2, “Pyridazinone compounds and uses thereof” (priority 2013, dated 2019)
Like-named read-outs stand apart in the source and are kept apart here.

What was measured:
EN PA = EN PA (Influenza A virus, UniProt P15659); assay: EN PA FRET Inhibition Assay; format: biochemical; conditions: read-out: Potency
[1] = system: Influenza strain A549 A/WSN/33 (H1N1); assay: Influenza Antiviral Assay; format: cell-based, Influenza A virus; conditions: neuraminidase fluorescence readout, read-out: % Inhibition

Row | Compound | IC50 (EN PA) [nM] | EC50 ([1]; Influenza A virus, A549, 20 h) [nM] | EC50 [1] [nM]
1 | CNC(=O)c1nn(CC2(c3ccc(C(F)(F)F)cc3)CCCC2)cc(O)c1=O [Compound 685] | < 100 | < 20000 | –
2 | CNC(=O)c1nn(CC2(c3ccc(-c4ccccc4)cc3)CCCC2)cc(O)c1=O [Compound 686] | 100 to 1000 | < 20000 | –
3 | CNC(=O)c1nn(CC2(c3ccc(C(C)C)cc3)CCCC2)cc(O)c1=O [Compound 687] | < 100 | < 20000 | –
4 | O=C(NCc1ccncc1)c1nn(CC2(c3ccccc3)CCCC2)cc(O)c1=O [Compound 692] | < 100 | < 20000 | –
5 | O=C(NCc1cncnc1)c1nn(CC2(c3ccccc3)CCCC2)cc(O)c1=O [Compound 693] | < 100 | < 20000 | –
6 | CNC(=O)c1nn(CC2(n3cc(C(C)C)c4cccnc43)CCCC2)cc(O)c1=O [Compound 694] | 100 to 1000 | < 20000 | –
7 | CNC(=O)c1nn(CC2(n3cc(C(F)(F)F)c4cccnc43)CCCC2)cc(OC(=O)C(C)(C)C)c1=O [Compound 695] | < 100 | < 20000 | –
8 | CNC(=O)c1nn(CC2(c3cccc(Cl)c3)CCCC2)cc(O)c1=O [Compound 700] | < 100 | < 20000 | –
9 | CNC(=O)c1nn(CC2(c3cccc(OC)c3)CCCC2)cc(O)c1=O [Compound 703] | < 100 | < 20000 | –
10 | CNC(=O)c1nn(CC(C)(C)n2cc(C(F)(F)F)c3cccnc32)cc(O)c1=O [Compound 704] | < 100 | < 20000 | –
11 | NC(=O)c1nn(CC2(c3ccccc3)CCCC2)cc(O)c1=O [Compound 708] | < 100 | < 20000 | –
12 | O=C(NCc1ccc(F)c(Cl)c1)c1nn(CC2(c3ccccc3)CCCC2)cc(O)c1=O [Compound 709] | < 100 | < 20000 | –
13 | CNC(=O)c1nn(CC2(n3cc(C4CC4)c4cccnc43)CCCC2)cc(O)c1=O [Compound 718] | < 100 | < 20000 | –
14 | O=C(Nc1ccc(Cl)cc1)c1nn(CC2(c3ccccc3)CCCC2)cc(O)c1=O [Compound 720] | < 100 | > 100000 | –
15 | NC(=O)c1nn(CC2(c3cccc(-c4ccccc4)c3)CCCC2)cc(O)c1=O [Compound 722] | < 100 | > 100000 | –
16 | CC(C)c1cccc(C2(Cn3cc(O)c(=O)c(C(=O)O)n3)CCCC2)c1 [Compound 723] | < 100 | 20000 to 100000 | –
17 | CC(C)c1cccc(C2(Cn3cc(O)c(=O)c(C(N)=O)n3)CCCC2)c1 [Compound 730] | < 100 | < 20000 | –
18 | CCc1cccc(C2(Cn3cc(O)c(=O)c(C(=O)NC)n3)CCCC2)c1 [Compound 733] | < 100 | < 20000 | –
19 | C=Cc1cccc(C2(Cn3cc(O)c(=O)c(C(=O)NC)n3)CCCC2)c1 [Compound 738] | < 100 | < 20000 | –
20 | CNC(=O)c1nn(CC2(n3cc(C)c4ccccc43)CCCC2)cc(O)c1=O [Compound 740] | < 100 | < 20000 | –
21 | CCNC(=O)c1nn(CC2(n3cc(C)c4cccnc43)CCCC2)cc(O)c1=O [Compound 741] | < 100 | < 20000 | –
22 | CNC(=O)c1nn(CC2(n3cc(-c4ccccc4)c4cccnc43)CCCC2)cc(O)c1=O [Compound 742] | < 100 | – | < 20000
23 | CNC(=O)c1nn(CC2(n3cc(Cl)c4cccnc43)CCCC2)cc(O)c1=O [Compound 743] | < 100 | < 20000 | –

Row | Compound | IC50 (EN PA) [nM] | EC50 ([1]; Influenza A virus, A549, 20 h) [nM] | EC50 [1] [nM]
24 | CCc1ccc(C2(Cn3cc(O)c(=O)c(C(=O)NC)n3)CCCC2)cc1 [Compound 747] | < 100 | < 20000 | –
25 | CNC(=O)c1nn(CC2(c3cccc4ccccc34)CCCC2)cc(O)c1=O [Compound 749] | < 100 | < 20000 | –
26 | O=C(NCc1ccc(F)c(Cl)c1)c1nn(CC2(c3cccc(Cl)c3)CCCC2)cc(O)c1=O [Compound 750] | < 100 | < 20000 | –
27 | CNC(=O)c1nn(CC2(c3ccc(Cl)c(Cl)c3)CCCC2)cc(O)c1=O [Compound 752] | < 100 | < 20000 | –
28 | CCNC(=O)c1nn(CC2(n3cc(Cl)c4cccnc43)CCCC2)cc(O)c1=O [Compound 753] | < 100 | < 20000 | –
29 | CNC(=O)c1nn(CC2(n3ccc4cc(C5CC5)cnc43)CCCC2)cc(O)c1=O [Compound 754] | < 100 | < 20000 | –
30 | CCCc1cnc2c(ccn2C2(Cn3cc(O)c(=O)c(C(=O)NC)n3)CCCC2)c1 [Compound 755] | < 100 | < 20000 | –
31 | CCCNC(=O)c1nn(CC2(n3cc(C)c4cccnc43)CCCC2)cc(O)c1=O [Compound 756] | < 100 | < 20000 | –
32 | Cc1cn(C2(Cn3cc(O)c(=O)c(C(=O)NCc4ccc(F)c(Cl)c4)n3)CCCC2)c2ncccc12 [Compound 757] | < 100 | < 20000 | –
33 | NC(=O)c1nn(CC2(n3cc(Cl)c4cccnc43)CCCC2)cc(O)c1=O [Compound 758] | < 100 | < 20000 | –
34 | Cc1cn(C2(Cn3cc(O)c(=O)c(C(=O)NCCCO)n3)CCCC2)c2ncccc12 [Compound 759] | < 100 | < 20000 | –
35 | O=C(NCC1CC1)c1nn(CC2(n3cc(Cl)c4cccnc43)CCCC2)cc(O)c1=O [Compound 760] | < 100 | < 20000 | –
36 | Cc1cn(C2(Cn3cc(O)c(=O)c(C(=O)NCCO)n3)CCCC2)c2ncccc12 [Compound 761] | < 100 | < 20000 | –
37 | C=Cc1ccc(C2(Cn3cc(O)c(=O)c(C(=O)NC)n3)CCCC2)cc1 [Compound 762] | < 100 | < 20000 | –
38 | CNC(=O)c1nn(CC2(n3cc(C)c4cccnc43)CCCC2)cc(OC(=O)OCC(C)C)c1=O [Compound 764] | < 100 | < 20000 | –
39 | CNC(=O)c1nn(CC2(n3cc(C)c4cccnc43)CCCC2)cc(OC(=O)N(C)C)c1=O [Compound 765] | ≥ 1000 | 20000 to 100000 | –
40 | CC(C)(C)NC(=O)c1nn(CC2(n3cc(Cl)c4cccnc43)CCCC2)cc(O)c1=O [Compound 766] | < 100 | < 20000 | –
41 | CNC(=O)c1nn(CC2(c3cc(Cl)cc(C(F)(F)F)c3)CCCC2)cc(O)c1=O [Compound 768] | < 100 | < 20000 | –
42 | C[C@@H](NC(=O)c1nn(CC2(n3cc(Cl)c4cccnc43)CCCC2)cc(O)c1=O)C(F)(F)F [Compound 771] | 100 to 1000 | < 20000 | –
43 | C[C@H](NC(=O)c1nn(CC2(n3cc(Cl)c4cccnc43)CCCC2)cc(O)c1=O)C(F)(F)F [Compound 772] | 100 to 1000 | < 20000 | –
44 | Cc1cn(C2(Cn3cc(O)c(=O)c(C(=O)N4CCC4)n3)CCCC2)c2ncccc12 [Compound 773] | < 100 | < 20000 | –
45 | CON(C)C(=O)c1nn(CC2(n3cc(C)c4cccnc43)CCCC2)cc(O)c1=O [Compound 774] | < 100 | < 20000 | –
46 | CCOC(=O)Oc1cn(CC2(n3cc(C)c4cccnc43)CCCC2)nc(C(=O)NC)c1=O [Compound 775] | < 100 | < 20000 | –

Row | Compound | IC50 (EN PA) [nM] | EC50 ([1]; Influenza A virus, A549, 20 h) [nM] | EC50 [1] [nM]
47 | CNC(=O)c1nn(CC2(c3ccccc3)CCC(C)(C)C2)cc(O)c1=O (centres unmarked) [Compound 776] | < 100 | < 20000 | –
48 | CNC(=O)c1nn(CC2(c3ccc4ccccc4c3)CCCC2)cc(O)c1=O [Compound 777] | < 100 | < 20000 | –
49 | CNC(=O)c1nn(CC2(c3ccccc3)CC(C)(C)C2)cc(O)c1=O [Compound 778] | < 100 | 20000 to 100000 | –
50 | Cc1c(O)c(=O)c(C(=O)O)nn1CCc1ccccc1 [Compound 782] | < 100 | > 100000 | –
51 | CNC(=O)c1nn(CC2(c3ccc(F)c(C(F)(F)F)c3)CCCC2)cc(O)c1=O [Compound 783] | < 100 | < 20000 | –
52 | O=C(NCc1ccc(F)c(Cl)c1)c1nn(CC2(c3ccc(Cl)c(Cl)c3)CCCC2)cc(O)c1=O [Compound 784] | 100 to 1000 | < 20000 | –
53 | CC1(C)CC(Cn2cc(O)c(=O)c(C(=O)O)n2)(c2ccccc2)C1 [Compound 785] | < 100 | > 100000 | –
54 | CC1(C)CCC(Cn2cc(O)c(=O)c(C(=O)O)n2)(c2ccccc2)C1 (centres unmarked) [Compound 786] | < 100 | > 100000 | –
55 | CNC(=O)c1nn(CC2(n3cc(C)c4cccnc43)CCCCC2)cc(O)c1=O [Compound 788] | < 100 | < 20000 | –
56 | CNC(=O)c1nn(CC2(n3cc(C)c4cccnc43)CCCC2)cc(OC(=O)OC(C)(C)C)c1=O [Compound 789] | < 100 | < 20000 | –
57 | CNC(=O)c1nn(CC2(n3c(C)cc4cccnc43)CCCC2)cc(O)c1=O [Compound 790] | < 100 | < 20000 | –
58 | CCCC(Cn1cc(O)c(=O)c(C(=O)NC)n1)n1cc(C)c2cccnc21 (centres unmarked) [Compound 791] | 100 to 1000 | < 20000 | –
59 | Cc1cn(C2(Cn3cc(O)c(=O)c(C(=O)NC(C)(C)C)n3)CCCC2)c2ncccc12 [Compound 792] | < 100 | < 20000 | –
60 | CNC(=O)c1nn(CC2(n3cc(C)c4cccnc43)CCCC2)cc(OC(=O)OC(C)C)c1=O [Compound 793] | 100 to 1000 | < 20000 | –
61 | O=C(c1nn(CC2(n3cc(Cl)c4cccnc43)CCCC2)cc(O)c1=O)N1CCC1 [Compound 794] | < 100 | < 20000 | –
62 | CC(=O)c1nn(CC2(n3cc(C)c4cccnc43)CCCC2)cc(O)c1=O [Compound 795] | 100 to 1000 | < 20000 | –
63 | CC1(C)CCC(Cn2cc(O)c(=O)c(C(=O)NCc3ccccc3)n2)(c2ccccc2)C1 (centres unmarked) [Compound 796] | 100 to 1000 | > 100000 | –
64 | CC1(C)CCC(Cn2cc(O)c(=O)c(C(=O)NCc3ccc(F)c(Cl)c3)n2)(c2ccccc2)C1 (centres unmarked) [Compound 797] | 100 to 1000 | < 20000 | –
65 | CC1(C)CC(Cn2cc(O)c(=O)c(C(=O)NCc3ccccc3)n2)(c2ccccc2)C1 [Compound 798] | 100 to 1000 | > 100000 | –
66 | CC1(C)CC(Cn2cc(O)c(=O)c(C(=O)NCc3ccc(F)c(Cl)c3)n2)(c2ccccc2)C1 [Compound 799] | < 100 | < 20000 | –
67 | CNC(=O)c1nn(CC2(c3cc(F)cc(C(F)(F)F)c3)CCCC2)cc(O)c1=O [Compound 800] | < 100 | < 20000 | –
